Measurements reported in ChEMBL document CHEMBL6153138, “Discovery of Novel Aromatic Urea-Imidazole Salt Derivatives for Cancer Therapy via Targeting ERK1/2” (J Med Chem, 2025).
Active and inactive are the calls of the source. The calls are words filed in the database; no cut-off is given here.

What was measured:
[1] = biological target: T1, Mitogen-activated protein kinase 1 (Homo sapiens, UniProt P28482); experiment: Binding affinity to ERK2 (unknown origin) assessed as dissociation constant by MST analysis
T1 sequence (P28482 whole entry): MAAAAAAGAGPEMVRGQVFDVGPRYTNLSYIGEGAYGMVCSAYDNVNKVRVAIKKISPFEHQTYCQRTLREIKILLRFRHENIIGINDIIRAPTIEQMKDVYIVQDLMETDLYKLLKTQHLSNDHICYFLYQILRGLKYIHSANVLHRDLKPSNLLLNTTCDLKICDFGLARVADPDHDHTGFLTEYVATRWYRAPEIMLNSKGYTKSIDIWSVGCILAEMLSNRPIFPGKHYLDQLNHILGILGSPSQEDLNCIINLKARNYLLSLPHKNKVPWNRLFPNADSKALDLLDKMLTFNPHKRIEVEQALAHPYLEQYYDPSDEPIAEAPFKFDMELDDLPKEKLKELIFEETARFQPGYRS

MCF7 [2] = experiment: Inhibition of colony formation in human MCF7 cells harbouring ERK1 knockout at 1 uM incubated for 48 hrs by crystal violet staining based microscopic analysis; assay type: functional, cell-based
MCF7 [3] = experiment: Upregulation of caspase3 protein expression in human MCF-7 cells at 1 uM incubated for 6 hrs in presence of 3-methyladenine by Western blot analysis; assay type: functional, cell-based
MCF7 [4] = experiment: Induction of apoptosis in human MCF7 cells assessed as early apoptotic cells at 0.5 uM incubated for 48 hrs by Annexin V/FITC and PI staining based flow cytometry analysis (reference value: 1.1%); assay type: functional
4T1 [5] = experiment: Antitumor activity against mouse 4T1 cells implanted in female BALB/c mouse model assessed as reduction in number of PCNA-positive proliferative cells at 25 to 50 mg/kg, po qd by immunohistochemical analysis; assay type: functional, organism-based; details: dose 25-50 mg/kg
[6] = biological target: Serine/threonine-protein kinase TAO2 (Homo sapiens) (UniProt Q9UL54); experiment: Inhibition of human TAO2 at 10000 nM by DiscoverX KINOMEscan assay relative to control
Chain of Serine/threonine-protein kinase TAO2 (Homo sapiens) (Q9UL54 whole entry): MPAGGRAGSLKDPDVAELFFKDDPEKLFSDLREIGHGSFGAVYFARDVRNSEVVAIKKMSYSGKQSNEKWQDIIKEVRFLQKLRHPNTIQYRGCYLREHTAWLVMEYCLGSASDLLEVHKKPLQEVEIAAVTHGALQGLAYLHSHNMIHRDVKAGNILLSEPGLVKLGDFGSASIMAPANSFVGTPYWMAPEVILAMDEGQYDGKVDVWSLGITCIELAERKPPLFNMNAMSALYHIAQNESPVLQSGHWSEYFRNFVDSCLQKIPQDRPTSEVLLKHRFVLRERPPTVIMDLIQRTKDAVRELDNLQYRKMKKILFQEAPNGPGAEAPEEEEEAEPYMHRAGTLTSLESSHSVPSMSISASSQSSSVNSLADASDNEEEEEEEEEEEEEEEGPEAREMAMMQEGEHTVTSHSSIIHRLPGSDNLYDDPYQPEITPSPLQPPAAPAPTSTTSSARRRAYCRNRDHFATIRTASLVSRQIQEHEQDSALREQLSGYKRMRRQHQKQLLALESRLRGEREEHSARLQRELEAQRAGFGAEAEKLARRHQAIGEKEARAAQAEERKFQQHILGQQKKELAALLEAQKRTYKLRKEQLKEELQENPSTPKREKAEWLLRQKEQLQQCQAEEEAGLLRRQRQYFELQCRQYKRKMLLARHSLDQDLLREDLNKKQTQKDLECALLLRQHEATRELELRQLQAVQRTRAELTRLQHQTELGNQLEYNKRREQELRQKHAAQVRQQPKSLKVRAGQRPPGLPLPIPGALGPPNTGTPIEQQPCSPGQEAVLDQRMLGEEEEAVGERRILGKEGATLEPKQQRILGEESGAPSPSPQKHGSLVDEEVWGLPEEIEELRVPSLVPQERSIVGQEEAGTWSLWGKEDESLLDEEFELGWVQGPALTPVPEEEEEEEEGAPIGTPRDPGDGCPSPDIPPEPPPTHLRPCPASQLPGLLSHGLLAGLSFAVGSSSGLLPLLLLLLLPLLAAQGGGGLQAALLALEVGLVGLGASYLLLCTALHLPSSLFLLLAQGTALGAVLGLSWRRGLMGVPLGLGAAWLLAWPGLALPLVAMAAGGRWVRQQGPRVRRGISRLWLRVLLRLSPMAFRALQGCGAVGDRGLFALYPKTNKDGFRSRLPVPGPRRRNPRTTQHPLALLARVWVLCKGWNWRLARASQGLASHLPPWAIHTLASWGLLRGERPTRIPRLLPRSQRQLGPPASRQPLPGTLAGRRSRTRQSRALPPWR

MCF7 [7] = experiment: Induction of autophagy in human MCF7 cells harbouring beclin1 knockout assessed as increase in LC3B expression at 1 uM incubated for 48 hrs by Western blot analysis; assay type: functional, cell-based
MCF7 [8] = experiment: Induction of autophagy in human MCF7 cells assessed as increase in acidic vesicular organelles at 0.5 to 2 uM by Acridine orange staining based analysis; assay type: functional, cell-based; details: dose 0.5-2 µM
[9] = biological target: T2, Mitogen-activated protein kinase 3 (Homo sapiens, UniProt P27361); experiment: Inhibition of ERK1 (unknown origin) incubated for 60 mins by luminescence based ADP-Glo kinase assay
T2 sequence (P27361 whole entry): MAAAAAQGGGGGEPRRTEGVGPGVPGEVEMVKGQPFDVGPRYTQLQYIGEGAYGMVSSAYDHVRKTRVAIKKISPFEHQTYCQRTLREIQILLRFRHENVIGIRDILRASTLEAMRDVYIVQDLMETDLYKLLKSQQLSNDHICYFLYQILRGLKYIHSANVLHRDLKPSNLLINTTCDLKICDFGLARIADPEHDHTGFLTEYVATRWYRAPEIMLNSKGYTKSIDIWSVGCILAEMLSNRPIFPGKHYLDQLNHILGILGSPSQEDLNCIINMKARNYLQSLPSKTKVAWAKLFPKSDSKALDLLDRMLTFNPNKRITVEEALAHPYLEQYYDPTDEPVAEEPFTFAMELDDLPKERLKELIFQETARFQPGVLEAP

[10] = Toxicity in female BALB/c mouse assessed as effect ALB level in serum at 25 to 50 mg/kg, po qd measured after 18 days by biochemical analysis; assay type: organism-based; details: in vivo, 432 h, dose 25-50 mg/kg, time 18 day
[11] = Toxicity in female BALB/c mouse assessed as effect on spleen at 25 to 50 mg/kg, po qd measured after 18 days by H and E staining based analysis; assay type: organism-based; details: in vivo, 432 h, dose 25-50 mg/kg, time 18 day
MCF7 [12] = experiment: Induction of autophagy in human MCF7 cells assessed as increase in LC3B expression at 1 uM incubated for 48 hrs in presence of 3-methyladenine by Western blot analysis; assay type: functional, cell-based
4T1 [13] = experiment: Antitumor activity against mouse 4T1 cells implanted in female BALB/c mouse model assessed as tumor growth inhibition at 50 mg/kg, po qd measured for 18 days relative to control; assay type: functional; details: 4T1, 432 h, time 18 day, read-out: TGI
[14] = Oral availability in Sprague-Dawley rat at 10 mg/kg by LC-MS/MS analysis; assay type: ADME, organism-based; details: in vivo
MCF7 [15] = experiment: Downregulation of p90RSK phosphorylation expression in human MCF7 cells at 0.5 to 2 uM measured after 30 mins to 4 hrs by Western blot analysis; assay type: functional, cell-based; details: dose 0.5-2 µM, time 30-240 min
MCF7 [16] = experiment: Activation of ERK1/2 pathway in human MCF7 cells assessed as increase in EGF-induced c-Myc phosphorylation at 2 uM incubated for 30 mins by Western blot analysis; assay type: cell-based
MCF7 [17] = experiment: Effect on MEK1/2 phosphorylation expression in human MCF7 cells at 0.5 to 2 uM measured after 30 mins to 4 hrs by Western blot analysis; assay type: functional, cell-based; details: dose 0.5-2 µM, time 30-240 min
MCF7 [18] = experiment: Induction of apoptosis in human MCF7 cells assessed as late apoptotic cells at 1 uM incubated for 48 hrs by Annexin V/FITC and PI staining based flow cytometry analysis (reference value: 3.65%); assay type: functional
MCF7 [19] = experiment: Induction of apoptosis in human MCF7 cells assessed as increase in PARP1 level at 0.5 to 2 uM by Western blot analysis; assay type: functional, cell-based; details: dose 0.5-2 µM
MCF7 [20] = experiment: Upregulation of ERK1/2 phosphorylation expression in human MCF7 cells at 2 uM measured after 12 to 24 hrs by Western blot analysis; assay type: functional, cell-based; details: time 12-24 hrs
[21] = biological target: T2, Mitogen-activated protein kinase 3; experiment: Binding affinity to ERK1 (unknown origin) assessed as dissociation constant by MST analysis
MCF7 [22] = experiment: Induction of autophagy in human MCF7 cells assessed as increase in AMPK phosphorylation level at 0.5 to 2 uM incubated for 48 hrs by Western blotting analysis; assay type: functional, cell-based; details: dose 0.5-2 µM
4T1 [23] = experiment: Antitumor activity against mouse 4T1 cells implanted in female BALB/c mouse model assessed as tumor growth inhibition at 50 mg/kg, po qd measured for 18 days in presence of chloroquine relative to control; assay type: functional; details: 4T1, 432 h, time 18 day, read-out: TGI
MCF7 [24] = experiment: Downregulation of vimentin expression in human MCF7 cells at 0.5 to 2 uM; assay type: functional, cell-based; details: dose 0.5-2 µM
4T1 [25] = experiment: Antitumor activity against mouse 4T1 cells implanted in female BALB/c mouse model assessed as increase in LC3B expression at 50 mg/kg, po in presence of chloroquine by immunohistochemical analysis; assay type: functional, organism-based
[26] = biological target: T1, Mitogen-activated protein kinase 1; experiment: Inhibition of ERK2 (unknown origin) incubated for 60 mins by luminescence based ADP-Glo kinase assay
[27] = AUC (0 to infinity) in Sprague-Dawley rat at 10 mg/kg, po by LC-MS/MS analysis; assay type: ADME, organism-based; details: in vivo
4T1-Luc [28] = experiment: Anti-metastatic activity in mouse 4T1-Luc cells assessed as reduction in destroyed alveolar wall at 25 to 50 mg/kg, po measured after 20 days by H and E staining based analysis; assay type: functional, organism-based; details: dose 25-50 mg/kg, time 20.0 day
MCF7 [29] = experiment: Induction of apoptosis in human MCF7 cells assessed as increase in caspase-3 cleavage at 0.5 to 2 uM by Western blot analysis; assay type: functional, cell-based; details: dose 0.5-2 µM
MCF7 [30] = experiment: Downregulation of total c-Myc expression in human MCF7 cells at 0.5 to 2 uM measured after 30 mins to 4 hrs by Western blot analysis; assay type: functional, cell-based; details: dose 0.5-2 µM, time 30-240 min
MCF7 [31] = experiment: Inhibition of colony formation in human MCF7 cells at 1 uM incubated for 6 hrs in presence of chloroquine by crystal violet staining based analysis; assay type: functional, cell-based
[32] = Toxicity in female BALB/c mouse assessed as effect TP level in serum at 25 to 50 mg/kg, po qd measured after 18 days by biochemical analysis; assay type: organism-based; details: in vivo, 432 h, dose 25-50 mg/kg, time 18 day
MCF7 [33] = experiment: Inhibition of colony formation in human MCF7 cells harbouring ERK2 knockout at 1 uM incubated for 48 hrs by crystal violet staining based microscopic analysis; assay type: functional, cell-based
[34] = Toxicity in female BALB/c mouse assessed as effect GLU level in serum at 25 to 50 mg/kg, po qd measured after 18 days by biochemical analysis; assay type: organism-based; details: in vivo, 432 h, dose 25-50 mg/kg, time 18 day
Mitochondrial membrane = experiment: Induction of mitochondrial membrane potential loss in human MCF7 cells assessed as increase in JC-1 monomers by measuring increase in green fluorescence at 0.5 uM by flow cytometry analysis (reference value: 38.0%); assay type: cell membranes
4T1-Luc [35] = experiment: Anti-metastatic activity in mouse 4T1-Luc cells assessed as reduction in enlarged alveolar space at 25 to 50 mg/kg, po measured after 20 days by H and E staining based analysis; assay type: functional, organism-based; details: dose 25-50 mg/kg, time 20.0 day
4T1 [36] = experiment: Antitumor activity against mouse 4T1 cells implanted in female BALB/c mouse model assessed as reduction in tumor growth administered po qd measured for 18 days; assay type: functional, organism-based; details: dose 25-50 mg/kg, time 18.0 day

In the case of `O=C(Nc1cc(C(F)(F)F)cc(C(F)(F)F)c1)N[C@@H](Cc1ccccc1)Cn1c[n+](Cc2ccc3ccccc3c2)c2ccccc21.[Br-]`, the Kd [1] is reported as 116 nM, the inhibition (MCF7 [2]) is reported as “inactive” and the Activity (MCF7 [3]) is reported as “Active”. For the same compound, the Activity (MCF7 [4]) was 9.9%, the Activity (4T1 [5]) was “Active” and the inhibition [6] was 14%. For the same compound, the Activity (MCF7 [7]) was “inactive”, the Activity (MCF7 [8]) was “Active” and the IC50 [9] was 91.7 nM. The Activity [10] was “Non-toxic”, the Activity [11] was “Non-toxic” and the Activity (MCF7 [12]) was “inactive”. The inhibition in vivo at 50 mg/kg (4T1 [13]) was 54.9%, the bioavailability [14] was 37.1% and the Activity (MCF7 [15]) was “Active”. For the same compound, the Activity (MCF7 [16]) was “inactive”, the Activity (MCF7 [17]) was “inactive” and the Activity (MCF7 [18]) was 13.7%. For the same compound, the Activity (MCF7 [19]) was “Active”, the Activity (MCF7 [20]) was “inactive” and the Kd [21] was 159 nM. For the same compound, the Activity (MCF7 [22]) was “Active”, the inhibition in vivo at 50 mg/kg (4T1 [23]) was 88.1% and the Activity (MCF7 [24]) was “Active”. The Activity (4T1 [25]) was “Active”, the IC50 [26] was 97.9 nM and the AUC(0-inf) [27] was 4080 ng·h/mL. The Activity (4T1-Luc [28]) was “Active”, the Activity (MCF7 [29]) was “Active” and the Activity (MCF7 [30]) was “Active”. For the same compound, the inhibition (MCF7 [31]) was “Active”, the Activity [32] was “Non-toxic” and the inhibition (MCF7 [33]) was “inactive”. For the same compound, the Activity [34] was “Non-toxic”, the Activity (Mitochondrial membrane) was 46.6% and the Activity (4T1-Luc [35]) was “Active”. For the same compound, the Activity (4T1 [36]) was “Dose-dependent-effect”.
